Measurements as given in the supplement of paper PMC12669032.

How the values were obtained:
Test in all cases: growth AUC relative to DMSO control (fraction); higher = more growth (less inhibition)
Conditions in all cases: 24 h
[1] = tested on: Parabacteroides distasonis
Method: (§1)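 Validation screen: 11 independently purchased pesticides tested on 8 gut bacterial strains at 2.5–320 µM in mGAM, anaerobic, 37 °C, 24 h. Growth AUC normalised to DMSO controls, mean of 3 independent experiments.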

[2] = tested on: Escherichia coli IAI1
Method: as §1

[3] = tested on: Roseburia intestinalis
Method: as §1

[4] = tested on: Bacteroides uniformis
Method: as §1

[5] = tested on: Lactobacillus gasseri
Method: as §1

[6] = tested on: Clostridium difficile
Method: as §1

[7] = tested on: Eubacterium rectale
Method: as §1

[8] = tested on: Streptococcus salivarius
Method: as §1

O=C(Oc1ccccc1)n1c(C(F)(F)F)nc2cc(Cl)c(Cl)cc21 [FENAZAFLOR]
growth AUC
Conditions | [1] | [2] | [3] | [4] | [5] | [6] | [7] | [8]
2.5 µM | 0.939 | 0.97 | 1.05 | 0.972 | 1.06 | 0.824 | 0.987 | 1.07
5 µM | 0.6 | 0.837 | 0.968 | 0.914 | 0.99 | 0.854 | 0.875 | 0.876
10 µM | 0.314 | 0.679 | 0.887 | 0.686 | 0.837 | 0.595 | 0.642 | 0.658
20 µM | 0.174 | 0.617 | 0.582 | 0.492 | 0.448 | 0.705 | 0.407 | 0.513
40 µM | 0.0387 | 0.383 | 0.22 | 0.171 | 0.168 | 0.00756 | 0.255 | 0.0266
80 µM | 0.0173 | 0.00144 | 0.0682 | 0.00285 | 0.0839 | 0.0273 | 0.106 | 0.0113
160 µM | 0.0144 | 0.00384 | 0.0676 | 0.00332 | 0.0514 | 0.0114 | 0.0493 | 0.00976
320 µM | 0.0614 | 0.0222 | 0.0375 | 0.0184 | 0.0326 | 0.0253 | 0.106 | 0.0373

C=CCOC(Cn1ccnc1)c1ccc(Cl)cc1Cl.O=S(=O)(O)O (stereo unspecified) [IMAZALIL SULFATE]
growth AUC
Conditions | [1] | [2] | [3] | [4] | [5] | [6] | [7] | [8]
2.5 µM | 1.02 | 0.998 | 0.943 | 1.04 | 1.07 | 1.02 | 0.622 | 1.05
5 µM | 0.948 | 0.975 | 0.906 | 1 | 0.958 | 0.962 | 0.322 | 1.01
10 µM | 0.856 | 0.956 | 0.861 | 1.01 | 0.976 | 0.944 | 0.0607 | 0.963
20 µM | 0.922 | 0.96 | 0.459 | 0.971 | 0.92 | 1.01 | 0.0382 | 0.978
40 µM | 0.732 | 0.942 | 0.0225 | 0.976 | 0.946 | 0.915 | 0.0278 | 0.961
80 µM | 0.587 | 0.961 | 0.0276 | 0.928 | 0.881 | 0.797 | 0.014 | 0.944
160 µM | 0.145 | 0.879 | 0.0196 | 0.836 | 0.788 | 0.515 | 0.0363 | 0.999
320 µM | 0.0186 | 0.776 | 0.0118 | 0.413 | 0.414 | 0.219 | 0.0159 | 0.705

COC(=O)N(OC)c1ccccc1COc1ccn(-c2ccc(Cl)cc2)n1 [PYRACLOSTROBIN]
growth AUC
Conditions | [1] | [2] | [3] | [4] | [5] | [6] | [7] | [8]
2.5 µM | 0.922 | 1.02 | 0.955 | 1.01 | 1.06 | 1.03 | 1.17 | 1.11
5 µM | 0.798 | 1.02 | 0.923 | 0.994 | 1.01 | 1.01 | 1.12 | 1.09
10 µM | 0.705 | 1.01 | 0.957 | 0.955 | 0.997 | 1 | 1.18 | 1.07
20 µM | 0.626 | 1.01 | 0.859 | 0.988 | 0.955 | 1.01 | 1.16 | 1.12
40 µM | 0.401 | 1.01 | 0.975 | 0.926 | 0.989 | 1.03 | 1.18 | 1.08
80 µM | 0.26 | 0.999 | 0.919 | 0.914 | 0.914 | 1.04 | 1.13 | 1.02
